Each structure is given as a SMILES string. Converted amounts (≈) assume the structure as drawn. Bounds are passed on as bounds.

This is an account of results in PubChem BioAssay AID1996.

For this series the following is noted: buffer; pH 7.4; 200.0 µM.
What is called solubility (kinetic) is the concentration staying in solution when a stock, usually in DMSO, is diluted into the medium. Turning to `CN(CC(=O)Nc1cccc(F)c1)C(=O)c1cccc2ccccc12`, the kinetic solubility was more than 50.5 µg/mL.

With `COc1ccc(C)cc1NC(=S)NC(C)c1ccc(OC)c(OC)c1` (stereo not given), the solubility (kinetic) amounted to 13.3 µg/mL (≈ 36.9 µM).

Regarding `NC(=O)CC[C@H](NC(=O)c1ccc(F)cc1)C(=O)OCC(=O)NCc1ccc2c(c1)OCO2`, the solubility (kinetic) amounted to 1.2 µg/mL (≈ 2.61 µM).

With `COC(=O)CC1C(=O)NCCN1C(=S)Nc1ccccc1Cl` (stereo not given), the kinetic solubility was more than 51.3 µg/mL.

`O=C(NCC1CCCO1)c1ccccc1NS(=O)(=O)c1cc([N+](=O)[O-])ccc1Cl` (stereo not given) showed a solubility (kinetic) of more than 66 µg/mL.

Regarding `Brc1cccc(C=Nc2cccc3ncccc23)c1`, the solubility (kinetic) is 12.2 µg/mL (≈ 39.2 µM).

The compound `COC(=O)c1cccc(NC(=O)Nc2ccc(Cl)cc2)c1` showed a kinetic solubility of less than 0.3 µg/mL.

`O=C(NCCCCc1ccccc1)c1ccccc1` had a kinetic solubility of 14.4 µg/mL (≈ 56.8 µM).

Regarding `CC1=C/C(=N\OS(=O)(=O)c2ccccc2)C(C)=CC1=O`, the solubility (kinetic) is 6.4 µg/mL (≈ 22 µM).

`CN1CC(C(=O)c2ccc(Cl)cc2)C(c2ccccc2)C1` (stereo not given) displayed a kinetic solubility of 40.1 µg/mL (≈ 134 µM).

On to `O=c1c2sc3ccccc3c2[nH]c(=S)n1CCN1CCOCC1`, for which the kinetic solubility was 49.9 µg/mL (≈ 144 µM).

As to `Cc1ccccc1S(=O)(=O)Nc1ncnc2ccccc12`, the kinetic solubility was more than 44.9 µg/mL.

Regarding `O=C(Nc1nccs1)C(c1ccccc1)N1CCCC1` (stereo not given), the solubility (kinetic) is more than 43.1 µg/mL.

The compound `Cc1onc(NC(=O)CSCC(=O)O)c1Br` returned a kinetic solubility of more than 46.4 µg/mL.

Compound `Cc1ccccc1C(=O)NNC(=O)c1ccc2nc[nH]c2c1` displayed a solubility (kinetic) of more than 44.1 µg/mL.

Compound `CCc1cc2c(Nc3ccccc3O)nc(C)nc2s1.Cl` displayed a solubility (kinetic) of less than 0.2 µg/mL.

`Cc1ccc(C)n1-c1cc([N+](=O)[O-])ccc1-n1ccnc1` displayed a kinetic solubility of 35.9 µg/mL (≈ 127 µM).

On to `O=C(Cc1ccc(Br)cc1)OCC(=O)c1ccc[nH]1`, for which the kinetic solubility is 10.3 µg/mL (≈ 32 µM).

`CN(Cc1ccccc1)C(=O)COC(=O)C12CC3CC(CC(Br)(C3)C1)C2` had a solubility (kinetic) of 18.8 µg/mL (≈ 44.7 µM).

Consider `CC(C)(C)NC(=O)COC(=O)CCC(=O)c1ccc(F)cc1`, for which the kinetic solubility is more than 46.4 µg/mL.

`C[C@H](NC(=O)c1ccco1)C(=O)NCc1cccs1` came in with a kinetic solubility of more than 41.7 µg/mL.

For the compound `N/C(CCS(=O)(=O)c1ccc(Cl)cc1)=N\OC(=O)c1ccccc1C(F)(F)F`, the solubility (kinetic) stood at 57 µg/mL (≈ 131 µM).

`COc1cc(C(=O)Nc2ccc(Nc3ccccc3)cc2)cc(OC)c1OC` showed a solubility (kinetic) of 4.4 µg/mL (≈ 11.6 µM).

`CCc1cccc(C)c1NC(=S)N1CCCCC1c1cccnc1` (stereo not given) had a solubility (kinetic) of 46.3 µg/mL (≈ 136 µM).

`Nc1cc(-c2ccccc2)n2c(n1)nc1ccccc12`: the solubility (kinetic) worked out at 5.7 µg/mL (≈ 21.9 µM).

Consider `COC(=O)c1[nH]c2c(c1C)C(=O)CC(c1ccc(OC)cc1)C2` (stereo not given), for which the kinetic solubility came out at 2.7 µg/mL (≈ 8.62 µM).

As to `CCc1c(C)nc2c(OC)cccc2c1Cl`, the solubility (kinetic) is 7.7 µg/mL (≈ 32.7 µM).

In the case of `O=C(NCCC(=O)N1CCN(C(=O)c2ccco2)CC1)c1ccccc1Cl`, the kinetic solubility is more than 58.5 µg/mL.

`COc1cc(NC(=O)CN2C(=O)NC(CC(C)C)C2=O)cc(OC)c1OC` (stereo not given) displayed a kinetic solubility of more than 56.9 µg/mL.

`O=C(Nc1ccncc1)Nc1cccc(Cl)c1Cl`: the kinetic solubility came to 24.1 µg/mL (≈ 85.4 µM).

In turn, `O=c1[nH]c(O)c(C=NCCc2ccccc2)c(=O)[nH]1` came in with a kinetic solubility of 3.6 µg/mL (≈ 13.9 µM).

Regarding `O=C(NC1CCCCC1)[C@@H]1CSC2c3ccccc3C(=O)N21` (stereo not given in full), the solubility (kinetic) amounted to 47 µg/mL (≈ 149 µM).

For the compound `O=C(CC1SCCNC1=O)Nc1ccc(Cl)cc1` (stereo not given), the solubility (kinetic) is more than 42.7 µg/mL.

`CCCCOC(=O)Nc1ccc(S(=O)(=O)Nc2nccs2)cc1` yielded a kinetic solubility of 38.1 µg/mL (≈ 107 µM).

With `O=C(c1cc2ccccc2oc1=O)N1CCCCCCC1`, the kinetic solubility is 42.5 µg/mL (≈ 149 µM).

Compound `O=C(Nc1ccc2c(c1)OCO2)c1cc(Cl)ccn1` yielded a solubility (kinetic) of 6.1 µg/mL (≈ 22 µM).

`COc1ccccc1NC(=O)C(=O)/C=C(\O)c1ccccc1` came in with a solubility (kinetic) of 10.8 µg/mL (≈ 36.3 µM).

The compound `CN(C)c1cccc(C(=O)NCCCSc2ccccc2)c1` displayed a solubility (kinetic) of 17.9 µg/mL (≈ 56.9 µM).

As to `Cc1cc(C)c2cc(C(=O)Nc3ccc4c(c3)OCO4)[nH]c2c1`, the solubility (kinetic) is less than 0.3 µg/mL.

`O=c1cc(-c2ccccc2)nc(Cc2c(Cl)cccc2Cl)[nH]1` came in with a kinetic solubility of less than 0.4 µg/mL.

As for `COc1ccc(NC(=S)N2CCCCC2c2cccnc2)cc1` (stereo not given), the solubility (kinetic) turned out to be 49 µg/mL (≈ 150 µM).

`CC(C)C(NS(=O)(=O)c1cc(C(=O)O)ccc1Cl)C(=O)O` (stereo not given) gave a solubility (kinetic) of 44.7 µg/mL (≈ 133 µM).

`CCOc1nc2ccccc2cc1/C=C/C(=O)O`: the kinetic solubility turned out to be 13.1 µg/mL (≈ 53.9 µM).

Take `COC(=O)c1ccc(CSc2nc(C(F)F)cc(C)c2C#N)o1`: the solubility (kinetic) is 8.3 µg/mL (≈ 24.5 µM).

Take `Cc1ccc(OCC(=O)N2CCc3ccccc3C2)c([N+](=O)[O-])n1`: the solubility (kinetic) is more than 49.1 µg/mL.

`CC(C)C(O)(C#CCN1CCCCCC1)c1ccccc1.Cl` (stereo not given) showed a kinetic solubility of more than 48.3 µg/mL.

In the case of `CC1(c2ccccc2)CC(C)(C)N(C(N)=O)c2ccccc21` (stereo not given), the kinetic solubility is 40.9 µg/mL (≈ 139 µM).

`CN1CCN(C(=O)c2cc3sc4ccccc4c3s2)CC1` showed a kinetic solubility of more than 47.5 µg/mL.

Compound `O=C(COC(=O)CC1CC2CCC1C2)NCc1ccc(Cl)cc1` (stereo not given) showed a solubility (kinetic) of 6.2 µg/mL (≈ 18.5 µM).

`Cc1ccc(C2CC3CCC(C2)N3Cc2ccccc2F)cc1` (stereo not given) had a kinetic solubility of 26.8 µg/mL (≈ 86.6 µM).

`Cc1ccc(Nc2nnc(SC(C)C(=O)NCC3CCCO3)s2)cc1` (stereo not given) returned a solubility (kinetic) of more than 56.8 µg/mL.

Consider `O=C1CCC(C(=O)NCc2ccc3c(c2)OCO3)N1` (stereo not given), for which the solubility (kinetic) was more than 39.3 µg/mL.

As to `O=C(O)CCCCCNC(=O)/C=C/c1ccco1`, the kinetic solubility was found to be 26.2 µg/mL (≈ 104 µM).

`COc1ccc(C(=O)Nc2ccc(CN3CCOCC3)cc2)cc1Br` showed a solubility (kinetic) of 14.1 µg/mL (≈ 34.8 µM).

`Br.Fc1cccc(CNCC2CCCO2)c1` (stereo not given) showed a kinetic solubility of 42.2 µg/mL.

Compound `CC(=O)c1ccc(OCCCC(=O)NCCc2ccccc2)cc1` returned a solubility (kinetic) of 38.8 µg/mL (≈ 119 µM).

Regarding `CC(C)c1ccc(/C=C2\NC(=O)NC2=O)cc1`, the kinetic solubility is 13.9 µg/mL (≈ 60.4 µM).

The compound `COc1ccc(CNC(=O)COc2ccc(F)cc2)cc1` registered a solubility (kinetic) of more than 43.4 µg/mL.

As to `CS(=O)(=O)/C(C#N)=C/c1cccn1S(=O)(=O)c1ccccc1`, the kinetic solubility is 6.8 µg/mL (≈ 20.2 µM).

Take `N/C(=N/OC(=O)c1ccc(Cl)cc1)c1ncc([N+](=O)[O-])s1`: the solubility (kinetic) is 0.2 µg/mL (≈ 0.612 µM).

`COc1cccc(Nc2ccc(-n3ccnc3)nn2)c1` yielded a kinetic solubility of more than 40.1 µg/mL.

`CCCC(=O)Oc1cccc(C2NC(=O)c3ccccc3O2)c1` (stereo not given) had a solubility (kinetic) of 18.8 µg/mL (≈ 60.4 µM).

Regarding `Cc1ccc(NC(=O)CCS(=O)(=O)c2cccc3nonc23)cc1`, the kinetic solubility was determined as 18.1 µg/mL (≈ 52.4 µM).

On to `C=Cn1cc[n+](CC(=O)c2ccc(Cl)cc2)c1.[Br-]`, for which the kinetic solubility is 43.3 µg/mL.

`O=S(=O)(NCCc1ccccc1)c1ccc(Br)cc1` registered a kinetic solubility of 3.5 µg/mL (≈ 10.3 µM).

`CCCCn1c(N)c(N(CC)C(=O)C2CCC2)c(=O)[nH]c1=O` gave a solubility (kinetic) of more than 46.3 µg/mL.

`COc1ccc2oc(=O)c(C(=O)NCc3ccccc3)cc2c1`: the kinetic solubility amounted to 0.7 µg/mL (≈ 2.26 µM).

For the compound `CCOc1ccccc1NC(=O)C1COc2ccccc2O1` (stereo not given), the solubility (kinetic) is less than 0.6 µg/mL.

Compound `O=C(CSc1ccccc1C(=O)O)NC1CCCCCC1` gave a solubility (kinetic) of more than 46.1 µg/mL.

In the case of `Cc1ccc(NC(=O)CNC(=O)c2cccs2)nc1`, the solubility (kinetic) was more than 41.3 µg/mL.

`O=C(Nc1ccc(NC(=O)c2ccccc2F)cn1)c1ccco1` registered a kinetic solubility of 8.4 µg/mL (≈ 25.8 µM).

Compound `Cc1ccc(F)cc1NC(=O)CSc1ncccn1` displayed a solubility (kinetic) of more than 41.6 µg/mL.

Consider `CCc1ncc(C)nc1CC`, for which the kinetic solubility amounted to 6.7 µg/mL (≈ 44.6 µM).

The compound `O=C(NC(=S)Nc1ccccc1C(=O)O)c1ccc2ccccc2c1` had a kinetic solubility of 38.2 µg/mL (≈ 109 µM).

In turn, `Clc1cc(Cl)cc(Nc2ncnc(-n3cccc3)n2)c1` yielded a solubility (kinetic) of less than 0.1 µg/mL.
